# Source: patent publication US20200190592A1, “PME-1 AS A BIOMARKER TO PREDICT AND DIAGNOSE AN INCREASED RISK OF ENDOMETRIAL CANCER AND GENE SILENCING OF PME-1 TO INHIBIT EPITHELIAL TO MESENCHYMAL TRANSITION” (Medical Diagnostic Laboratories, L.L.C., priority 2018, published 2020)
# Key:
# Assay type in all cases: cell-based, human
# DcR2 = experiment: Senescence assay (Western for DcR2); conditions: RL95-2 lysates, GAPDH loading control
# Protocol: We next analyzed cell lysates taken from RL95-2 cells that expressed either empty vector (Control), overexpressed PME-1 (+PME-1) or expressed shRNA against PME-1 (−PME-1) for DcR2 protein.
# 15 μg of protein was used for western analysis. PME-1 antibody (Santa Cruz) and COXIV (Cell Signaling Technologies) were used for detection of proteins and the blots were developed using chemiluminescence (Pierce ECL Western Blotting Substrate—Thermo Scientific) on the GE ImageQuant LAS 4000. For analysis of Akt, ERK, and β-catenin signaling in tissue culture, western analyses were completed as follows. RL95-2 cells stably infected with lentivirus expressing constructs were selected with puromycin (Invivogen). The cells were incubated with either 50 μM Akt inhibitor (LY 294002, Cell Signaling Technologies) or 40 μM ERK inhibitor (V0126, Cell Signaling Technologies) for 1-2 hours at 37° C. 1.5× Laemelli buffer (0.5 M Tris pH6.8, […], 10% sodium dodecyl sulfate, 100 mM EDTA) was used to prepare cell lysates. 20 μg of protein was used for western analysis. Primary antibodies used were: P-Akt (Ser473), P-Akt (Thr308), pan-Akt, P-ERK (Thr202/204), total ERK (Cell Signaling Technologies), PME-1 (Santa Cruz), phospho-β-catenin (Ser45, Cell Signaling Technologies), phospho-β-catenin (Ser33/37/Thr41, Cell Signaling Technologies), β-catenin (Abcam), DcR2 (Abcam), and GAPDH (Abcam). […]
# RL95-2 cells [1] = experiment: Immunofluorescence for phosphorylated histone H3 (mitotic cells); conditions: −PME-1 cells compared to control cells
# Protocol: Endometrial cancer cells were stained for phosphorylated histone H3 on serine 10, a marker of mitotic cells, followed by counterstaining with DAPI (FIG. 12) to identify all cells.
# For analysis of patient samples, tissues were blocked for 2 hr with 10% FBS in TBST for at RT, incubated with each primary antibody (together) overnight at 4° C., washed three times for 15 min in TBST, incubated with each secondary fluorescent antibody (together) for 1 hr at RT, washed again as above, stained with DAPI and mounted with cover-slips using vectashield mounting media (Vector Labs). Primary antibodies used were for PME-1 (Santa Cruz), E-cadherin (Millipore), and vimentin (Genscript). 1×10^3RL95-2 cells were plated on a chamber slide and were incubated overnight at 37° C. Slides were fixed with 4% paraformaldehyde (PFA) on ice for two hours. The cells were incubated with the primary antibody to Histone 3 (pH3) phosphorylated at Ser10 (1:200, Cell Signaling Technologies) overnight and developed with the secondary anti-rabbit Alexa-Fluor 555 antibody (Cell Signaling Technologies). DAPI was used as a nuclear counter-stain (Sigma Aldrich). Images were taken with the Nikon Eclipse TE2000 at 20×.
# RL95-2 cells [2] = experiment: Foci forming assay in RL95-2 cells; conditions: RL95-2, PME-1 depleted, compared to control cells
# Protocol: A foci forming assay was used in this study to monitor cell growth. Equal amounts of cells were plated and they were allowed to grow for a determined period of time (see Materials and Methods section for details). The foci that were formed were then stained with the crystal violet dye. Cells were washed […] with PBS prior to visualization. Numbers of foci were counted and results were averaged among different experiments.
# To determine if the loss of active PME-1 accounted for the observed decrease in foci formation, we first treated RL95-2 cells with siRNA against the 3′-UTR of PPME1 to decrease endogenous levels of PME-1. […] The S156A PME-1 mutant is not capable of demethylating its target, PP2A.
# 1,000 cells were plated in a six well tissue culture dish in selection media (to include 5 μg/ml puromycin) (InvivoGen). Cells were allowed to adhere and grow in a 5% CO2, 37° C. incubator for 10 to 14 days. Media was replaced every fourth day. Cells were stained with 1% crystal violet (Sigma Aldrich) for five minutes and rinsed with PBS. Colonies were counted and data is presented as the percentage of change compared to the control. All Experiments were repeated at least three times.
# RL95-2 cells [3] = experiment: Colony forming / invasive growth assay in Matrigel; conditions: RL95-2 in Matrigel
# Protocol: To determine if PME-1 contributes to the more invasive and metastatic phenotypes, we performed a colony forming assay in matrigel.
# The 3D On Top Matrigel Assay was completed in 24 well dishes as described previously {Lee, 2007 #1577}. Briefly, the bottoms of 24 well dishes were coated with 50 μl BD Matrigel Basement Matrix Phenol Red Free (BD Biosciences cat. #356237) and allowed to solidify at 37° C. 10^5 cells were suspended in 250 μl chilled medium containing either 10 ng/ml of TGF-b or vehicle and allowed to settle at 37° C. for 30 minutes. Chilled medium containing 10% of Matrigel was added by pipetting gently down the sidewall of the well and incubated at 37° C. for ten days changing top medium every second day. Colony counts were performed on the tenth day, averages were taken from three fields of view using a 10× objective. Experiment was repeated three times.
# RL95-2 cells [4] = experiment: BrDU incorporation assay; conditions: compared to scrambled shRNA control set to 100%
# Protocol: To confirm our foci formation data that altering PME-1 levels in endometrial cancer cells affect their rate of cell proliferation, we conducted a BrDU incorporation assay. BrDU is incorporated into newly synthesized DNA and can be detected with antibodies; thus, increased BrDU incorporation correlates with an increased level of proliferation.
# The BrDU Incorporation assay was completed with RL95-2 cell lines in media supplemented with 2.5 μg/ml puromycin. Cells were plated at 0.5*10^4 cells per well into a 96 well dish with 0% FBS and allowed to settle for 24 hours. The assay was completed as per kit instructions (Roche, Cell Proliferation ELISA, BrdU colorimetric cat. #11647229001). Briefly, 10 uM BrdU was added to the cells, 24 hours later cells were fixed and denatured with FixDenat from the kit and allowed to incubate with anti-BrdU antibody for up to two hours. Following the incubation and addition of the kit substrate, absorbances were read using FluoStar Galaxy.
substance,measurement,setting,value
"shPPME1 no. 2: shRNA targeting PPME1, SEQ ID NO: 2: GCAGCGATTATTAGTAGAGTT, bp 289-309; used for all subsequent experiments (guide GCAGCGATTATTAGTAGAGTT; listed as Homo sapiens)",senescent marker protein DcR2,DcR2,increase
same,decreased proliferation (phospho-histone H3 positive cells),RL95-2 cells [1],~30%
same,decrease in foci,RL95-2 cells [2],75%
same,decrease in colony formation,"RL95-2 cells [3]; 10 days, vs control cells",50%
same,colonies number and size,"RL95-2 cells [3]; −TGF-β, compared to control cells",fewer and smaller colonies
same,decrease in BrDU incorporation,RL95-2 cells [4],40%
